From paper PMC12855270, “Exceptionally selective voltage-sensor trapping of NaV1.5 channels by Mg-protoporphyrin impairs cancer cell migration” (Scientific Reports, 2026)
Read-outs that look alike come from different tables or passages of the source.

Experiments:
human NaV1.5 (hNaV1.5) [1] = target: T1, human NaV1.5 (hNaV1.5) (Homo sapiens, UniProt Q14524); conditions: for effect on hNaV1.5 current / remaining peak inward current: 1 µM extracellular, 5 min, -30 mV; for IC50: read-out: IC50 of hNaV1.5 current inhibition (Hill fit, constrained), current after 5 min, Hill coefficient constrained to 1 and remaining current to zero
T1 sequence (Q14524 whole entry): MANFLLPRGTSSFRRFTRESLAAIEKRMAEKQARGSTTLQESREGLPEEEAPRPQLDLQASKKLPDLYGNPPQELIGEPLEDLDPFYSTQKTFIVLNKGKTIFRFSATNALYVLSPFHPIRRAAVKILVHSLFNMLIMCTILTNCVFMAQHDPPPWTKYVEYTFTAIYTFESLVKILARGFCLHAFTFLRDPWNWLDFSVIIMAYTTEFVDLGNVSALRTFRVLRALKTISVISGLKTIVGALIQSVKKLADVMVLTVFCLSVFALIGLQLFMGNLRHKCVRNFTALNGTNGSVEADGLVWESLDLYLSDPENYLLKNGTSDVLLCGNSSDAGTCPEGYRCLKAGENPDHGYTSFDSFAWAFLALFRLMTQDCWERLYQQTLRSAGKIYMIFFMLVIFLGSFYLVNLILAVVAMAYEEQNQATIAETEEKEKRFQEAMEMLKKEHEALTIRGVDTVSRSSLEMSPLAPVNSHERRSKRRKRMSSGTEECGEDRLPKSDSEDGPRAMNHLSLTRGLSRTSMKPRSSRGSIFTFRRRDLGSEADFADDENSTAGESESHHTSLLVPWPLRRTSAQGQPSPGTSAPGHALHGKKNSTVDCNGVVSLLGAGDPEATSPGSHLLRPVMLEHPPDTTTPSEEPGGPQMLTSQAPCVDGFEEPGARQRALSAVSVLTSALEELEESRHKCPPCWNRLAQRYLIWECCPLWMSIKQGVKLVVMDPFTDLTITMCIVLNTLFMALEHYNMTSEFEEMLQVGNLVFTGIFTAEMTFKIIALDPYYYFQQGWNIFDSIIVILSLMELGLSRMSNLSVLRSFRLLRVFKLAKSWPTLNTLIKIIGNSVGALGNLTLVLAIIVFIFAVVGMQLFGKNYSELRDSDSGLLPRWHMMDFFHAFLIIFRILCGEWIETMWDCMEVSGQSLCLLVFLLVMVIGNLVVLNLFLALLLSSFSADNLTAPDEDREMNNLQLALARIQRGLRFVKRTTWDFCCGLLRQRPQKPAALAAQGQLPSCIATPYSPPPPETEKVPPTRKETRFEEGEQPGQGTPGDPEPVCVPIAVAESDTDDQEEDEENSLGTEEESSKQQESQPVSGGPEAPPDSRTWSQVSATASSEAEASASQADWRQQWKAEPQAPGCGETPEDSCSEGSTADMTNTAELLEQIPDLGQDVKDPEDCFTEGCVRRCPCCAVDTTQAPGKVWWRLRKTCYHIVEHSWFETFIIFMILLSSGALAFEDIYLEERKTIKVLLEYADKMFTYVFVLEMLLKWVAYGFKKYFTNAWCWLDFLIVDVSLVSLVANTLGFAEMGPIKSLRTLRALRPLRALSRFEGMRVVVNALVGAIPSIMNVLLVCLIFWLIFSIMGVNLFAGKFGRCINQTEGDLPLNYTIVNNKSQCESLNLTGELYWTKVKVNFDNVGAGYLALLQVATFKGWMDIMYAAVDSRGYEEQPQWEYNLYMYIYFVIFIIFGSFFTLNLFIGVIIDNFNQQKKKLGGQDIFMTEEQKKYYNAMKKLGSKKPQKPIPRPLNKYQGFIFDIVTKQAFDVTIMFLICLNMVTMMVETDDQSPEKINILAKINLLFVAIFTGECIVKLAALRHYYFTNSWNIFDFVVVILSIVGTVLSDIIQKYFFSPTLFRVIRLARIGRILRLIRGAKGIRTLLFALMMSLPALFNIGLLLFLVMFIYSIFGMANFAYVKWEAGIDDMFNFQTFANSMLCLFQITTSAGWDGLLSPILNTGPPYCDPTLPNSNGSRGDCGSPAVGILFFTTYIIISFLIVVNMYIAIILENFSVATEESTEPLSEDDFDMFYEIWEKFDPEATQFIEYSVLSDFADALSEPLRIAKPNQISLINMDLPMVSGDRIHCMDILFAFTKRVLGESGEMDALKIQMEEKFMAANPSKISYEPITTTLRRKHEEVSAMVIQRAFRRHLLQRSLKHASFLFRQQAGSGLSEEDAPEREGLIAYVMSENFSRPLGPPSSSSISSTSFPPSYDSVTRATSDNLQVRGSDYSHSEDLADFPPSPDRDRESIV

[2] = target: T2, human BKCa channel (KCa1.1, KCNMA1) (Homo sapiens, UniProt Q12791); assay: BKCa currents in inside-out patches (HEK293T); type: biochemical; conditions: 1 µM to intracellular side, 1 µM free Ca2+, 80 mV
T2 construct: expressed in transfected cells; host or cells: HEK293T
T2 sequence (Q12791 1-1178 isoform Q12791-5): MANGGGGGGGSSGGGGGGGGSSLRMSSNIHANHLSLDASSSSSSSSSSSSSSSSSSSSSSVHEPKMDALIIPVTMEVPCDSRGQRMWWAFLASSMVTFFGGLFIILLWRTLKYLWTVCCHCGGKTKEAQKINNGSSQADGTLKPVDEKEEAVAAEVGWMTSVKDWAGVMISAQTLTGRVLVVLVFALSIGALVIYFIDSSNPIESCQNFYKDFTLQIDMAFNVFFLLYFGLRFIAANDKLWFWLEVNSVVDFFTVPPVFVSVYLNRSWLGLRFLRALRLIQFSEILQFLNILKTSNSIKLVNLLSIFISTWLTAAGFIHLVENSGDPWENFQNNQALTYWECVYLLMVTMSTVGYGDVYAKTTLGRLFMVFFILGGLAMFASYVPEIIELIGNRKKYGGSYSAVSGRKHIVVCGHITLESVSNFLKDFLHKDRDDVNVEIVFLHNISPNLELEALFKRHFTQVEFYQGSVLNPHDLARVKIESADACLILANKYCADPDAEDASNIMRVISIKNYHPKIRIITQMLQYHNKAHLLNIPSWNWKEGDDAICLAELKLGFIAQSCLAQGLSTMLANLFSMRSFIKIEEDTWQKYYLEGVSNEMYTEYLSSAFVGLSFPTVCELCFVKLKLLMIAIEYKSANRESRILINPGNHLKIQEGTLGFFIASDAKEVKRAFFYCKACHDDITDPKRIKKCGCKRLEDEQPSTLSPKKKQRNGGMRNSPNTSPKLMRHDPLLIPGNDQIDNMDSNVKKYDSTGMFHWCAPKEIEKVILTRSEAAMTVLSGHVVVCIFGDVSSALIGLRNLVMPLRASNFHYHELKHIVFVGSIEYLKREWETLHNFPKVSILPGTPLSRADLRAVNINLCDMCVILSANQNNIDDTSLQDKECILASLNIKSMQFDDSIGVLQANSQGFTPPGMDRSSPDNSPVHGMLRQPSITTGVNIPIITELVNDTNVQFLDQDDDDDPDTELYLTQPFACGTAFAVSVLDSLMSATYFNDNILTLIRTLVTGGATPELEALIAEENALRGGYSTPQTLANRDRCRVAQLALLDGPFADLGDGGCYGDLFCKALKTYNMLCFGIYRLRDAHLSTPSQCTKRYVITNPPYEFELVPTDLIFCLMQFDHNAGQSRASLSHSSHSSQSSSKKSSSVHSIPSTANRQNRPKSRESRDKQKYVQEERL
Source text: The coding sequence of human NaV1.5 (hNaV1.5, SCN5A, Acc. no. M77235) was inserted into pRC/CMV vector plasmids and expressed in HEK293T cells as described previously. The following NaV constructs were used in a similar manner: mNaV1.5 (mouse, AJ271477.1), hNaV1.2 (NM001040143), hNaV1.4 (AAO83647), hNaV1.7 (NP002968), and hNaV1.8 (Q9Y5Y9.2). The neonatal splice variant of hNaV1.5 (nhNaV1.5) was used as described by Schroeter et al.[45]. Recombinant DNAs for all NaV subgroups were engineered using PCR-based methods and verified by DNA sequencing. For the functional evaluation of BKCa channels (KCa1.1), we used human KCNMA1 (Acc. no. U11058).
Cells were transfected with the channel-coding plasmids using ROTI®Fect (Carl Roth, Karlsruhe, Germany). Visualization of transfected cells was achieved by co-expressing green fluorescent protein or in the case of BKCa channels, CD8 + with subsequent use of anti-CD8 coated microbeads. Neuro-2A cells were utilized for the expression of hNaV1.8 channels; all other constructs were expressed in HEK293T cells. Ionic currents were recorded 1–2 days after transfection.
Currents of BKCa channels were measured in inside-out patches after expression in HEK293T cells, using an EPC10 amplifier (HEKA Elektronik) and PACHMASTER NEXT acquisition software (Multi-Channel Systems GmbH, MCS, Reutlingen, Germany). The holding voltage was -90 mV, and currents were recorded for depolarization steps up to 80 mV. Pipettes with resistances of 1.8–2.5 MΩ were used. The extracellular (pipette) solution contained (in mM): 138 NaCl, 4 KCl, 2 CaCl2, 2 MgCl2, and 10 HEPES, pH 7.4 (NaOH); the intracellular (bath) solution with about 1 µM free Ca^2+ contained: 135 KCl, 8.63 CaCl2, 2 MgCl2, 10 EGTA, and 10 HEPES, pH 7.4 (KOH).
All recordings were obtained at room temperature (20–23 °C). Metal protoporphyrins, diluted from stock solutions in DMSO, were applied by adding 1/3 of the final bath volume and mixing. Transmission and fluorescence light sources were turned off during data acquisition.

MDA-MB-231 cells = assay: wound-healing assay, MDA-MB-231; type: cell-based, human; conditions: for gap closure (cell migration) in wound-healing assay: 100 nM, 4 h, 2% FBS, MDA-MB-231
[3] = target: T2, human BKCa channel (KCa1.1, KCNMA1); conditions: applied to the intracellular side; cited from earlier work
human NaV1.5 (hNaV1.5) [4] = target: T1, human NaV1.5 (hNaV1.5); conditions: cited from earlier work
SW-480 cells = assay: wound-healing assay, SW-480; type: cell-based, human
Description: (§1) Human embryonic kidney 293 T cells (HEK293T, from CAMR; Porton Down, Salisbury, UK) were cultured in Dulbecco’s Modified Eagle’s Medium (DMEM) with Nutrient Mixture F-12 (Gibco). Mouse neuroblastoma cells (Neuro-2A, German Collection of Microorganisms and Cell Cultures, DSMZ, Braunschweig, Germany) were cultured in DMEM. The breast cancer cell lines MDA-MB-231 (DSMZ) and T-47D (American Type Culture Collection, ATCC) were cultured in RPMI 1640 medium (Sigma, R7388), while the colorectal cancer cell lines SW-480 (DSMZ) and SW-48 (ATCC) were maintained in DMEM. Media were supplemented with 10% FBS, and the cells were incubated at 37 °C in a humidified atmosphere containing 5% or 10% (Neuro-2A) CO2.
(§2) Cells (50,000 to 70,000 per well) were seeded in a 48-well plate (Greiner Bio-One, Frickenhausen, Germany) and cultured for one day in their respective culture media supplemented with 10% FBS. Upon achieving approximately 90% confluency, a 200 µl sterile pipette tip was used to create a linear scratch (wound) in each well. Subsequently, the cells were rinsed with phosphate-buffered saline (PBS) and the medium was replaced with the same formulation containing only 2% FBS to minimize cell proliferation and to emphasize cell migration. […] Images were analyzed with ImageJ (NIH, Bethesda, MD, USA) using the “wound_healing_size_tool_updated” plugin[46] to quantify wound areas.

SW-48 cells = assay: wound-healing assay, SW-48; type: cell-based, human
Description: as §1, §2

[5] = test system: xenografted NaV1.5-expressing human breast cancer cells; conditions: mouse xenograft model; cited from earlier work
[6] = target: endogenous NaV-channel current in MDA-MB-231 cells (Homo sapiens, UniProt Q14524); assay: whole-cell patch-clamp of endogenous NaV-channel current in MDA-MB-231 cells; type: cell-based
Sequence of endogenous NaV-channel current in MDA-MB-231 cells (Q14524 711-950): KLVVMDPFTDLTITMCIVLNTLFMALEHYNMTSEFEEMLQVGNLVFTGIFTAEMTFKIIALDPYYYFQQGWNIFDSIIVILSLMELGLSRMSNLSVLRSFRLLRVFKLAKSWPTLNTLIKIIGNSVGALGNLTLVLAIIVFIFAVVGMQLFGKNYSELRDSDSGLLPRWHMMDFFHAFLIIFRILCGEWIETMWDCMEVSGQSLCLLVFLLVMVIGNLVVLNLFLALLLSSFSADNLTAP

C=CC1=C(C)c2cc3[n-]c(cc4[n-]c(cc5nc(cc1n2)C(C)=C5C=C)c(C)c4CCC(=O)[O-])c(CCC(=O)[O-])c3C.[H+].[H+].[Mn+2] [MnPpIX, manganese-PpIX]
effect on hNaV1.5 current (human NaV1.5 (hNaV1.5) [1]): slightly less potent than hemin
IC50 (human NaV1.5 (hNaV1.5) [1]): 672 ± 18 nM

C=CC1=C(C)c2cc3[n-]c(cc4[n-]c(cc5nc(cc1n2)C(C)=C5C=C)c(C)c4CCC(=O)[O-])c(CCC(=O)[O-])c3C.[H+].[H+].[Ni+2] [NiPpIX, nickel-PpIX]
effect on hNaV1.5 current (human NaV1.5 (hNaV1.5) [1]): failed to affect the current
effect on hNaV1.5 current (human NaV1.5 (hNaV1.5) [1]; listed as Ni(II)PpIX): completely ineffective
effect on BKCa current [2]: did not block BKCa channels
gap closure (cell migration) in wound-healing assay (MDA-MB-231 cells): failed to influence gap closure

Fe^3+-protoporphyrin IX [hemin]
remaining peak inward current (human NaV1.5 (hNaV1.5) [1]): ~ 20%
reestablishment of inhibition, times slower than MgPpIX (human NaV1.5 (hNaV1.5) [1]; hNaV1.5, after prepulse-induced reversal): about 8 times
IC50 (human NaV1.5 (hNaV1.5) [1]): 231 ± 18 nM
effect on BKCa channel [3]: effectively inhibited
IC50 (human NaV1.5 (hNaV1.5) [4]; read-out: apparent half-inhibitory constant (IC50) for hNaV1.5-mediated Na+ current, extracellularly applied): ~100 nM
gap closure (cell migration) in wound-healing assay (MDA-MB-231 cells): diminished gap closure, albeit less potently than MgPpIX

C=CC1=C(C)C2=Cc3c(C=C)c(C)c4[n]3[Ga][n]3c(c(C)c(CCC(=O)O)c3=CC3=NC(=C4)C(C)=C3CCC(=O)O)=CC1=N2 [GaPpIX, gallium-PpIX]
remaining peak inward current (human NaV1.5 (hNaV1.5) [1]): about 10%
IC50 (human NaV1.5 (hNaV1.5) [1]): 117 ± 8 nM
effect on BKCa current [2]: did not block BKCa channels
gap closure (cell migration) in wound-healing assay (MDA-MB-231 cells): diminished gap closure, albeit less potently than MgPpIX

C=CC1=C(C)c2cc3[nH]c(cc4nc(cc5[nH]c(cc1n2)c(C)c5CCC(=O)O)C(CCC(=O)O)=C4C)c(C)c3C=C [PpIX, Protoporphyrin IX, reference compound]
cell migration in wound-healing assay (SW-480 cells): neither SnPpIX nor PpIX had any impact
cell migration in wound-healing assay (SW-48 cells): neither SnPpIX nor PpIX had any impact
gap closure (cell migration) in wound-healing assay (MDA-MB-231 cells): failed to influence gap closure

C=CC1=C(C)c2cc3[n-]c(cc4nc(cc5[n-]c(cc1n2)c(C)c5C=C)C(C)=C4CCC(=O)O)c(CCC(=O)O)c3C.[Zn+2] [ZnPpIX, zinc-PpIX]
remaining peak inward current (human NaV1.5 (hNaV1.5) [1]): about 10%
IC50 (human NaV1.5 (hNaV1.5) [1]): 106 ± 11 nM
effect on BKCa current [2]: minor effect
gap closure (cell migration) in wound-healing assay (MDA-MB-231 cells): diminished gap closure, albeit less potently than MgPpIX

COc1ccccc1OCC(O)CN1CCN(CC(=O)Nc2c(C)cccc2C)CC1 (stereo not drawn) [ranolazine]
lung colonization by the cancer cells [5]: reduced lung colonization by the cancer cells
tolerability [5]: well-tolerated

NC1=N[C@H](O)[C@H]2[C@H]3O[C@]4(O)O[C@@H]([C@@H](O)[C@@]2(N1)[C@@H]4O)[C@]3(O)CO [TTX, tetrodotoxin, reference compound]
remaining endogenous NaV-channel current [6]: 3.5 ± 0.5%
gap closure in wound-healing assay (MDA-MB-231 cells): only a weak effect

C=Cc1c(C)c2cc3nc(c4c5[n-]c(cc6nc(cc1[n-]2)C(C)=C6CC)c(C)c5C(=O)[C@@H]4C(=O)OC)[C@@H](CCC(=O)OC/C=C(\C)CCC[C@H](C)CCC[C@H](C)CCCC(C)C)[C@@H]3C.[Mg+2] [Chlorophyll-A, reference compound]
effect on hNaV1.5 current (human NaV1.5 (hNaV1.5) [1]): no detectable effect

tin-PpIX [SnPpIX]
cell migration in wound-healing assay (SW-480 cells): neither SnPpIX nor PpIX had any impact
effect on hNaV1.5 current (human NaV1.5 (hNaV1.5) [1]): failed to affect the current
effect on hNaV1.5 current (human NaV1.5 (hNaV1.5) [1]; listed as Sn(IV)PpIX): completely ineffective
cell migration in wound-healing assay (SW-48 cells): neither SnPpIX nor PpIX had any impact
gap closure (cell migration) in wound-healing assay (MDA-MB-231 cells): failed to influence gap closure

C=CC1=C(C)c2cc3[n-]c(cc4[n-]c(cc5nc(cc1n2)C(C)=C5C=C)c(C)c4CCC(=O)O)c(CCC(=O)O)c3C.[Cu+2] [CuPpIX, copper-PpIX]
effect on hNaV1.5 current (human NaV1.5 (hNaV1.5) [1]): failed to affect the current
effect on hNaV1.5 current (human NaV1.5 (hNaV1.5) [1]; listed as Cu(II)PpIX): completely ineffective

C=CC1=C(C)c2cc3[n-]c(cc4[n-]c(cc5nc(cc1n2)C(C)=C5C=C)c(C)c4CCC(=O)O)c(CCC(=O)O)c3C.[Fe+2] [heme, reference compound]
impact on hNaV1.5 channels (human NaV1.5 (hNaV1.5) [4]): no impact
